The values below are quoted from earlier work in patent US20160375061A1, “COMPOSITION INVOLVED IN REGULATING ENERGY CYCLE, INFLAMMATION AND INSULIN RESISTANCE DYSFUNCTIONS, AND USE THEREOF PARTICULARLY IN CARDIOMETABOLIC DISEASES” (INTERNATIONAL NUTRITION RESEARCH COMPANY, priority 2013, published 2016).

The conditions of the data set: mutation of the gene transporter OCT1; normal daily doses 1 to 3 g/day.

As to `CN(C)C(=N)N=C(N)N` [metformin], the “concentrations of metformin (saturation)” value is 30 ± 19 ng/mL.
